Columns and labels:
[1] = tested on: ENR+CD organoids (ISC to Paneth cell differentiation); assay: Primary screen: basal (non-stimulated) lysozyme secretion LYZ.NS, 2.5-D 384-well ENR+CD organoid differentiation; assay type: cell-based, mouse
Source text: (§1) High-throughput screening.

ENR+CD organoids [2] = assay: Secondary (validation) screen: ATP (CTG) assay, 2.5-D 384-well ENR+CD organoids; assay type: cell-based, mouse; settings: 6-day ENR+CD, vs ENR+CD+DMSO
Procedure: (§2) Drugs were tested at a narrowed dose range around each treatment's identified optimal dose from the primary screen (4× below, 2× above and below).
as §1
(§3) Secondary lysozyme secretion assay screen. Confirmatory secondary screening with primary hits was performed using the above 384-well plate method. The screen was conducted with 4-plate replicates with a base media of ENR+CD. Media was supplemented with compound at day 0 and day 3 (n=8 well replicates per dose) at four different doses: two-fold above, two-fold below, and four-fold below the optimal final dose for each respective treatment. Additionally, each plate carried a large number of ENR+DMSO or ENR+CD+DMSO (vehicle) control wells (n=100 for ATP, and n=25 for LYZ.NS and LYZ.S) for robust normalization. ATP, non-stimulated lysozyme activity and CCh-stimulated lysozyme activity was again measured and the collected data was again processed in a custom R-script, per primary screen with slight modification. Values were log10 transformed, and a plate-wise FC was calculated for each well based on the median value of ENR+CD+DMSO (vehicle) control wells to normalize plate to plate variability.

[3] = tested on: ENR+CD organoids (ISC to Paneth cell differentiation); assay: Secondary (validation) screen: LYZ.S CCh-stimulated lysozyme secretion, 2.5-D 384-well ENR+CD organoids; assay type: cell-based, mouse; settings: 6-day ENR+CD, vs ENR+CD+DMSO
Procedure: as §2, §1, §3

[4] = tested on: ENR+CD organoids (ISC to Paneth cell differentiation); assay: Primary screen: CCh-stimulated lysozyme secretion LYZ.S, 2.5-D 384-well ENR+CD organoid differentiation; assay type: cell-based, mouse; settings: primary screen
Source text: as §1

ENR+CD organoids [5] = assay: Primary screen: ATP (CellTiter-Glo 3D, CTG) cell number/viability, 2.5-D 384-well ENR+CD organoids; settings: primary screen; for Z.CTG: standard z score;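 for all read-outs here: compounds given at plating and again on day 3 over a 6-day differentiation from ENR+CV stem-cell-enriched precursors, ATP measured on day 6, plate median as control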
[6] = tested on: ENR+CD organoids (ISC to Paneth cell differentiation); assay: Secondary (validation) screen: LYZ.NS basal lysozyme secretion, 2.5-D 384-well ENR+CD organoids; assay type: cell-based, mouse; settings: 6-day ENR+CD, vs ENR+CD+DMSO
Procedure: as §2, §1, §3

[7] = primary screen, dose 0.08 uM, standard z score
[8] = primary screen, dose 0.40 uM, standard z score
[9] = primary screen, dose 2.00 uM, standard z score
[10] = primary screen, dose 10.00 uM, standard z score
[11] = dose 0.08 uM, FC vs plate median
[12] = dose 0.40 uM, FC vs plate median
[13] = dose 2.00 uM, FC vs plate median
[14] = dose 10.00 uM, FC vs plate median
[15] = dose 0.08 uM, FC relative to plate median
[16] = dose 0.40 uM, FC relative to plate median
[17] = dose 2.00 uM, FC relative to plate median
[18] = dose 10.00 uM, FC relative to plate median

`CCc1cncnc1N1CCN(Cc2nc3ccc(C(F)(F)F)cc3[nH]2)CC1` [PF-4708671] gave a Z.LYZ.NS [1, 7] of 0.654, a Z.LYZ.NS [1, 8] of 1.059 and a Z.LYZ.NS [1, 9] of 1.721. The Z.LYZ.NS [1, 10] was 0.297, the Dose.FC.LYZ.NS ([1]; primary screen; dose 0.08 uM; FC vs plate median) was 0.075 log2 fold change and the Dose.FC.LYZ.NS ([1]; primary screen; dose 0.40 uM; FC vs plate median) was 0.122 log2 fold change. It also gave a Dose.FC.LYZ.NS ([1]; primary screen; dose 2.00 uM; FC vs plate median) of 0.198 log2 fold change, a Dose.FC.LYZ.NS ([1]; primary screen; dose 10.00 uM; FC vs plate median) of 0.034 log2 fold change and a Dose.FC.CTG (ENR+CD organoids [2]; 0.50 uM) of −0.049 log2 fold change. For the same compound, the Z.CTG (ENR+CD organoids [2]; 0.50 uM) was −0.443, the repSSMD.CTG (ENR+CD organoids [2]; 0.50 uM) was −0.324 and the Dose.FC.CTG (ENR+CD organoids [2]; 1.00 uM) was −0.039 log2 fold change. For the same compound, the Z.CTG (ENR+CD organoids [2]; 1.00 uM) was −0.354, the repSSMD.CTG (ENR+CD organoids [2]; 1.00 uM) was −0.284 and the Dose.FC.CTG (ENR+CD organoids [2]; 2.00 uM) was −0.076 log2 fold change. The Z.CTG (ENR+CD organoids [2]; 2.00 uM) was −0.684, the repSSMD.CTG (ENR+CD organoids [2]; 2.00 uM) was −0.558 and the Dose.FC.CTG (ENR+CD organoids [2]; 4.00 uM) was 0.067 log2 fold change. For the same compound, the Z.CTG (ENR+CD organoids [2]; 4.00 uM) was 0.601, the repSSMD.CTG (ENR+CD organoids [2]; 4.00 uM) was 0.414 and the Dose.FC.LYZ.S ([3]; 0.50 uM) was −0.040 log2 fold change. The Z.LYZ.S ([3]; 0.50 uM) was −0.305, the repSSMD.LYZ.S ([3]; 0.50 uM) was −0.496 and the Dose.FC.LYZ.S ([3]; 1.00 uM) was −0.245 log2 fold change. The Z.LYZ.S ([3]; 1.00 uM) was −1.879, the repSSMD.LYZ.S ([3]; 1.00 uM) was −2.451 and the Dose.FC.LYZ.S ([3]; 2.00 uM) was −0.272 log2 fold change. The Z.LYZ.S ([3]; 2.00 uM) was −2.088, the repSSMD.LYZ.S ([3]; 2.00 uM) was −3.604 and the Dose.FC.LYZ.S ([3]; 4.00 uM) was −0.042 log2 fold change. The Z.LYZ.S ([3]; 4.00 uM) was −0.320, the repSSMD.LYZ.S ([3]; 4.00 uM) was −0.503 and the Dose.FC.LYZ.S [4, 11] was 0.136 log2 fold change. For the same compound, the Dose.FC.LYZ.S [4, 12] was 0.172 log2 fold change, the Dose.FC.LYZ.S [4, 13] was 0.209 log2 fold change and the Dose.FC.LYZ.S [4, 14] was −0.024 log2 fold change. For the same compound, the Z.CTG (ENR+CD organoids [5]; dose 0.08 uM) was 0.623, the Z.CTG (ENR+CD organoids [5]; dose 0.40 uM) was 0.640 and the Z.CTG (ENR+CD organoids [5]; dose 2.00 uM) was 0.721. It also gave a Z.CTG (ENR+CD organoids [5]; dose 10.00 uM) of −0.766, a Dose.FC.CTG (ENR+CD organoids [5]; [11]) of 0.261 log2 fold change and a Dose.FC.CTG (ENR+CD organoids [5]; [12]) of 0.268 log2 fold change. It also gave a Dose.FC.CTG (ENR+CD organoids [5]; [13]) of 0.302 log2 fold change, a Dose.FC.CTG (ENR+CD organoids [5]; [14]) of −0.321 log2 fold change and a Dose.FC.LYZ.NS ([6]; 0.50 uM) of 0.005 log2 fold change. The Z.LYZ.NS ([6]; 0.50 uM) was 0.039, the repSSMD.LYZ.NS ([6]; 0.50 uM) was 0.058 and the Dose.FC.LYZ.NS ([6]; 1.00 uM) was −0.200 log2 fold change. The Z.LYZ.NS ([6]; 1.00 uM) was −1.600, the repSSMD.LYZ.NS ([6]; 1.00 uM) was −1.909 and the Dose.FC.LYZ.NS ([6]; 2.00 uM) was −0.221 log2 fold change. It also gave a Z.LYZ.NS ([6]; 2.00 uM) of −1.764, a repSSMD.LYZ.NS ([6]; 2.00 uM) of −2.529 and a Dose.FC.LYZ.NS ([6]; 4.00 uM) of 0.015 log2 fold change. The Z.LYZ.NS ([6]; 4.00 uM) was 0.120 and the repSSMD.LYZ.NS ([6]; 4.00 uM) was 0.171.

`COc1ccc(C2CNC(=O)C2)cc1OC1CCCC1` (centres unmarked) [Rolipram, reference compound] was tested, and the “primary screen hit call (SSMD and z-scored FC cutoffs in both LYZ assays)” value ([1]; LYZ.NS and LYZ.S; 0.08-10 uM, 6 days ENR+CD) was “sole hit in their respective pathway”, the Dose.FC.LYZ.NS ([1]; primary screen, dose 0.08 uM, FC relative to plate median) was 0.406 log2 fold change and the Z.LYZ.NS [1, 7] was 3.532. For the same compound, the Dose.FC.LYZ.NS ([1]; primary screen, dose 0.40 uM, FC relative to plate median) was 0.063 log2 fold change, the Z.LYZ.NS [1, 8] was 0.545 and the Dose.FC.LYZ.NS ([1]; primary screen, dose 2.00 uM, FC relative to plate median) was 0.169 log2 fold change. It also gave a Z.LYZ.NS [1, 9] of 1.470, a Dose.FC.LYZ.NS ([1]; primary screen, dose 10.00 uM, FC relative to plate median) of 0.112 log2 fold change and a Z.LYZ.NS [1, 10] of 0.975. For the same compound, the Dose.FC.CTG (ENR+CD organoids [2]; 0.50 uM) was 0.053 log2 fold change, the Dose.FC.CTG (ENR+CD organoids [2]; 1.00 uM) was 0.133 log2 fold change and the Dose.FC.CTG (ENR+CD organoids [2]; 2.00 uM) was 0.202 log2 fold change. It also gave a Dose.FC.CTG (ENR+CD organoids [2]; 4.00 uM) of 0.065 log2 fold change, a Dose.FC.LYZ.S ([3]; 0.50 uM) of −0.082 log2 fold change and a Dose.FC.LYZ.S ([3]; 1.00 uM) of 0.104 log2 fold change. The Dose.FC.LYZ.S ([3]; 2.00 uM) was 0.030 log2 fold change, the Dose.FC.LYZ.S ([3]; 4.00 uM) was −0.071 log2 fold change and the Dose.FC.LYZ.S [4, 15] was 0.239 log2 fold change. The Dose.FC.LYZ.S [4, 16] was 0.156 log2 fold change, the Dose.FC.LYZ.S [4, 17] was 0.337 log2 fold change and the Dose.FC.LYZ.S [4, 18] was 0.223 log2 fold change. The Dose.FC.CTG (ENR+CD organoids [5]; [15]) was 0.356 log2 fold change, the Dose.FC.CTG (ENR+CD organoids [5]; [16]) was 0.155 log2 fold change and the Dose.FC.CTG (ENR+CD organoids [5]; [17]) was 0.396 log2 fold change. For the same compound, the Dose.FC.CTG (ENR+CD organoids [5]; [18]) was 0.299 log2 fold change, the Dose.FC.LYZ.NS ([6]; 0.50 uM) was −0.043 log2 fold change and the Dose.FC.LYZ.NS ([6]; 1.00 uM) was 0.152 log2 fold change. It also gave a Dose.FC.LYZ.NS ([6]; 2.00 uM) of 0.099 log2 fold change and a Dose.FC.LYZ.NS ([6]; 4.00 uM) of −0.051 log2 fold change.

In the case of `CCOc1ccc(Cc2cc([C@@H]3O[C@H](CO)[C@@H](O)[C@H](O)[C@H]3O)ccc2Cl)cc1` [Dapagliflozin, reference compound], the Dose.FC.LYZ.NS ([1]; primary screen, dose 0.08 uM) is reported as 0.170 log2 fold change, the Dose.FC.LYZ.NS ([1]; primary screen, dose 0.40 uM) is reported as 0.097 log2 fold change and the Dose.FC.LYZ.NS ([1]; primary screen, dose 2.00 uM) is reported as 0.159 log2 fold change. For the same compound, the Dose.FC.LYZ.NS ([1]; primary screen, dose 10.00 uM) was 0.136 log2 fold change, the Z.LYZ.NS ([1]; primary screen, standard z score, dose 0.08 uM) was 1.481 and the Z.LYZ.NS ([1]; primary screen, standard z score, dose 0.40 uM) was 0.842. It also gave a Z.LYZ.NS ([1]; primary screen, standard z score, dose 2.00 uM) of 1.386, a Z.LYZ.NS ([1]; primary screen, standard z score, dose 10.00 uM) of 1.182 and a Dose.FC.CTG (ENR+CD organoids [2]; 0.02 uM) of 0.085 log2 fold change. For the same compound, the Dose.FC.CTG (ENR+CD organoids [2]; 0.04 uM) was 0.174 log2 fold change, the Dose.FC.CTG (ENR+CD organoids [2]; 0.08 uM) was 0.149 log2 fold change and the Dose.FC.CTG (ENR+CD organoids [2]; […]) was 0.035 log2 fold change. It also gave a Dose.FC.LYZ.S ([3]; 0.02 uM) of −0.019 log2 fold change, a Dose.FC.LYZ.S ([3]; 0.04 uM) of 0.069 log2 fold change and a Dose.FC.LYZ.S ([3]; 0.08 uM) of 0.069 log2 fold change. For the same compound, the Dose.FC.LYZ.S ([3]; […]) was −0.082 log2 fold change, the Dose.FC.LYZ.S ([4]; dose 0.08 uM) was 0.294 log2 fold change and the Dose.FC.LYZ.S ([4]; dose 0.40 uM) was 0.135 log2 fold change. For the same compound, the Dose.FC.LYZ.S ([4]; dose 2.00 uM) was 0.166 log2 fold change, the Dose.FC.LYZ.S ([4]; dose 10.00 uM) was 0.145 log2 fold change and the Dose.FC.CTG (ENR+CD organoids [5]; dose 0.08 uM) was 0.410 log2 fold change. The Dose.FC.CTG (ENR+CD organoids [5]; dose 0.40 uM) was 0.254 log2 fold change, the Dose.FC.CTG (ENR+CD organoids [5]; dose 2.00 uM) was 0.293 log2 fold change and the Dose.FC.CTG (ENR+CD organoids [5]; dose 10.00 uM) was 0.301 log2 fold change. For the same compound, the Dose.FC.LYZ.NS ([6]; 0.02 uM) was 0.022 log2 fold change, the Dose.FC.LYZ.NS ([6]; 0.04 uM) was 0.150 log2 fold change and the Dose.FC.LYZ.NS ([6]; 0.08 uM) was 0.058 log2 fold change. The Dose.FC.LYZ.NS ([6]; […]) was −0.060 log2 fold change.

— patent US20220323406A1, “METHODS AND COMPOSITIONS FOR DIFFERENTIATING STEM CELLS” (Massachusetts Institute of Technology, priority 2019, published 2022)
